26 molecules from patent US12358893B2, “Metalloenzyme inhibitor compounds” (Corxel Pharmaceuticals Hong Kong Limited, priority 2019, dated 2025) can be followed below.

In general, IC50 refers to the concentration at which inhibition is half-maximal.

Experiment [1] has as its target T1, recombinant human CYP11B1 (Homo sapiens, UniProt P15538).
T1 construct: made in house; host or cells: V79-4 cells (Chinese hamster lung fibroblasts); enzyme-enriched microsomal fraction of the lysate
T1 sequence (P15538 25-503): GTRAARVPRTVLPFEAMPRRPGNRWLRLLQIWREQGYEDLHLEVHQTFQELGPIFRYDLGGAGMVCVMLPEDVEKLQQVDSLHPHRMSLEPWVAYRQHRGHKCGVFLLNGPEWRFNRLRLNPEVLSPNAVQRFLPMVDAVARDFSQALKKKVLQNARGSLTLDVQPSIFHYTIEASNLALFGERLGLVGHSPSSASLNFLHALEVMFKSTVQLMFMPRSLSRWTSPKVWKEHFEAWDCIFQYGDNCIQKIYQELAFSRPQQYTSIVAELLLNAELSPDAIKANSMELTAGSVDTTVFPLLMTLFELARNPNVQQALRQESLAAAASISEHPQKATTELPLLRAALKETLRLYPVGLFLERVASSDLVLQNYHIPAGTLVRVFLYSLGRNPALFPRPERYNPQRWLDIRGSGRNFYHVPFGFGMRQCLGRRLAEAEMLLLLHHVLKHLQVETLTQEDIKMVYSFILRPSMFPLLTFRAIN
Put plainly: CYP11B1 enzyme assay with enzyme enriched microsomes, cortisol measured by LC-MS. The format is biochemical. Conditions: microsomes from V79-4 cells; 11-deoxycortisol at Km; read-out: hCYP11B1 IC50. Here is the method:
(§1) V79-4 cells expressing recombinant andrenodoxin and andrenodoxin reductase with either recombinant human CYP11B2 or CYP11B1 were prepared according to methods previously described (LaSala et al 2009 Anal Bioch 394:56-61). An enzyme enriched microsomal fraction was prepared from cellular lysates and subsequently used as the enzyme source for determining inhibitor IC50s. The substrate Km values were experimentally determined for 11-deoxycorticosterone (CYP11B2 substrate) and 11-deoxycortisol (CYP11B1 substrate). Enzyme assays for inhibitor screening employed CYP11B2 and CYP11B1 enzyme enriched microsomes and were run at the Km of the respective substrates. Products of the enzyme reactions, aldosterone for CYP11B2 or cortisol for CYP11B1, were measured by LC-MS. Assays were run under conditions of less than 20% substrate turnover. Inhibitor IC50s were generated by determining the product formation in the absence or presence of inhibitor at various concentrations. In the absence of the test compound, the product formed (Pt) in each data set was defined as 100% activity. In the absence of enzyme, the product formed (Pb) in each data set was defined as 0% activity. The percent activity in the presence of each inhibitor was calculated according to the following equation: % activity=(P−Pb)/(Pt−Pb), where P=the product formed in the presence of the inhibitor. The IC50 value was defined as the inhibitor concentration causing a 50% decrease in activity relative to the no inhibitor control reaction.

In experiment [2] the target is T2, recombinant human CYP11B2 (Homo sapiens, UniProt P19099).
T2 construct: made in house; host or cells: V79-4 cells (Chinese hamster lung fibroblasts); enzyme-enriched microsomal fraction of the lysate
T2 sequence (P19099 25-503): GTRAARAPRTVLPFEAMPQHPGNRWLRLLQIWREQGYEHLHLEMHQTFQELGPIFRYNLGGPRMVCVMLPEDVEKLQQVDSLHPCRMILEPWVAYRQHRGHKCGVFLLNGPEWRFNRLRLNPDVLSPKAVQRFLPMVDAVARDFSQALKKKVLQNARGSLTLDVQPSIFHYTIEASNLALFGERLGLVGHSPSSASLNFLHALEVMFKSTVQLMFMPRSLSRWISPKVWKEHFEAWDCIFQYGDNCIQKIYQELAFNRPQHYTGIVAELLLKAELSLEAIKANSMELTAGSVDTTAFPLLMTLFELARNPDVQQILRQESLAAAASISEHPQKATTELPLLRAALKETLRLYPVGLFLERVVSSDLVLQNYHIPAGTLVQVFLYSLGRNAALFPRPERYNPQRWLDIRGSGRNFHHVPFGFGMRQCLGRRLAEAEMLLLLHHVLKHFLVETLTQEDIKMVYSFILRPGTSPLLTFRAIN
Put plainly: CYP11B2 enzyme assay with enzyme enriched microsomes, aldosterone measured by LC-MS. To be noted: microsomes from V79-4 cells; 11-deoxycorticosterone at Km; read-out: hCYP11B2 IC50. In kind it is biochemical. Here is the method: as §1

Consider `Fc1cc2ncn(-c3nc4cc(F)c(F)cc4n3C3CC3)c2cc1F` [Example 17, 1′-cyclopropyl-5,5′,6,6′-tetrafluoro-1′H-1,2′-bibenzo[d]imidazole], for which the results for the IC50 in experiment [1] and in experiment [2] were 1000 to 10000 nM and 1 to 100 nM, respectively.
`Fc1ccc2c(c1)ncn2-c1nc2ccc(F)cc2n1C1CC1` [Example 18, 1′-cyclopropyl-5,6′-difluoro-1′H-1,2′-bibenzo[d]imidazole]: the 50% inhibitory concentration (IC50) in experiment [1] lay in the range of 100 to 1000 nM; in experiment [2] it was 1 to 100 nM.
For `Fc1ccc2ncn(-c3nc4ccc(F)cc4n3C3CC3)c2c1` [Example 19, 1′-cyclopropyl-6,6′-difluoro-1′H-1,2′-bibenzo[d]imidazole] the same measures were 1000 to 10000 nM and 1 to 100 nM.
For `Fc1ccc2nc(-n3cnc4cc(C(F)(F)F)ccc43)n(C3CC3)c2c1` [Example 20, 1′-cyclopropyl-6′-fluoro-5-(trifluoromethyl)-1′H-1,2′-bibenzo[d]imidazole], the figures for the IC50 in experiment [1] and in experiment [2] were 100 to 1000 nM and 1 to 100 nM, respectively.
For `Fc1ccc2nc(-n3cnc4ccc(C(F)(F)F)cc43)n(C3CC3)c2c1` [Example 21, 1′-cyclopropyl-6′-fluoro-6-(trifluoromethyl)-1′H-1,2′-bibenzo[d]imidazole] the same measures were 1000 to 10000 nM and 1 to 100 nM.
As to `CCn1c(-n2cnc3cc(F)c(F)cc32)nc2ccc(C#N)cc21` [Example 22, 1′-ethyl-5,6-difluoro-1′H-[1,2′-bibenzo[d]imidazole]-6′-carbonitrile], the 50% inhibitory concentration (IC50) in experiment [1] was in the range of 1000 to 10000 nM; in experiment [2] it was 1 to 100 nM.
For `N#Cc1ccc2c(c1)ncn2-c1nc2cc(F)c(F)cc2n1C1CC1` [Example 23, 1′-cyclopropyl-5′,6′-difluoro-1′H-[1,2′-bibenzo[d]imidazole]-5-carbonitrile], the IC50 in experiment [1] was 1000 to 10000 nM; in experiment [2], 1 to 100 nM.
In the case of `N#Cc1ccc2ncn(-c3nc4cc(F)c(F)cc4n3C3CC3)c2c1` [Example 24, 1′-cyclopropyl-5′,6′-difluoro-1′H-[1,2′-bibenzo[d]imidazole]-6-carbonitrile], the IC50 in experiment [1] was > 10000 nM; in experiment [2], 100 to 1000 nM.
Take `N#Cc1ccc2nc(-n3cnc4cc(F)c(F)cc43)n(C3CC3)c2c1` [Example 25, 1′-cyclopropyl-5,6-difluoro-1′H-[1,2′-bibenzo[d]imidazole]-6′-carbonitrile]: the IC50 in experiment [1] was in the range of 1000 to 10000 nM; in experiment [2] it was 1 to 100 nM.
For `Fc1cc2ncn(-c3nc4ccc(Cl)cc4n3C3CC3)c2cc1F` [Example 26, 6′-chloro-1′-cyclopropyl-5,6-difluoro-1′H-1,2′-bibenzo[d]imidazole], the results for the concentration for half-maximal inhibition (IC50) in experiment [1] and in experiment [2] were 1000 to 10000 nM and 1 to 100 nM, respectively.
For the molecule `Fc1ccc2nc(-n3cnc4cc(OC(F)(F)F)ccc43)n(C3CC3)c2c1` [Example 27, 1′-cyclopropyl-6′-fluoro-5-(trifluoromethoxy)-1′H-1,2′-bibenzo[d]imidazole], the half-maximal inhibitory concentration (IC50) lay within 100 to 1000 nM in experiment [1] and 1 to 100 nM in experiment [2].
On to `Fc1ccc2nc(-n3cnc4ccc(OC(F)(F)F)cc43)n(C3CC3)c2c1` [Example 28, 1′-cyclopropyl-6′-fluoro-6-(trifluoromethoxy)-1′H-1,2′-bibenzo[d]imidazole], for which the half-maximal inhibitory concentration (IC50) in experiment [1] is > 10000 nM; in experiment [2] it was 100 to 1000 nM.
As to `Fc1cc2ncn(-c3nc4ccc(Cl)nc4n3C3CC3)c2cc1F` [Example 29, 5-chloro-3-cyclopropyl-2-(5,6-difluoro-1H-benzo[d]imidazol-1-yl)-3H-imidazo[4,5-b] pyridine], the half-maximal inhibitory concentration (IC50) lay in the range of 1000 to 10000 nM in experiment [1] and 1 to 100 nM in experiment [2].
Take `CS(=O)(=O)N(c1ccc2c(c1)ncn2-c1nc2ccc(F)c(F)c2n1C1CC1)S(C)(=O)=O` [Example 30, N-(1′-cyclopropyl-6′,7′-difluoro-1′H-[1,2′-bibenzo[d]imidazol]-5-yl)-N-(methylsulfonyl) methanesulfonamide]: the IC50 was > 10000 nM in experiment [1] and 1000 to 10000 nM in experiment [2].
In the case of `CS(=O)(=O)Nc1ccc2c(c1)ncn2-c1nc2ccc(F)c(F)c2n1C1CC1` [Example 31, N-(1′-cyclopropyl-6′,7′-difluoro-1′H-[1,2′-bibenzo[d]imidazol]-5-yl) methanesulfonamide], the figures for the 50% inhibitory concentration (IC50) in experiment [1] and in experiment [2] were > 10000 nM and 1 to 100 nM, respectively.
On to `N#Cc1ccc2nc(-n3cnc4cc(F)c(F)cc43)n(C3CC3)c2n1` [Example 32, 3-cyclopropyl-2-(5,6-difluoro-1H-benzo[d]imidazol-1-yl)-3H-imidaz[4,5-b]pyridine-5-carbonitrile], for which the IC50 was in the range of 1000 to 10000 nM in experiment [1] and 1 to 100 nM in experiment [2].
As to `CS(=O)(=O)Nc1ccc2ncn(-c3nc4ccc(F)c(F)c4n3C3CC3)c2c1` [Example 33, N-(1′-cyclopropyl-6′,7′-difluoro-1′H-[1,2′-bibenzo[d]imidazol]-6-yl) methanesulfonamide], the IC50 in experiment [1] was > 10000 nM; in experiment [2] it was 1000 to 10000 nM.
For `Fc1cc2nc(-n3cnc4ncccc43)n(C3CC3)c2cc1F` [Example 34, 1-(1-cyclopropyl-5,6-difluoro-1H-benzo[d]imidazol-2-yl)-1H-imidazo[4,5-b]pyridine] the same measures were > 10000 nM and 1000 to 10000 nM.
In the case of `Fc1cc2nc(-n3cnc4cnccc43)n(C3CC3)c2cc1F` [Example 35, 1-(1-cyclopropyl-5,6-difluoro-1H-benzo[d]imidazol-2-yl)-1H-imidazo[4,5-c]pyridine], the values for the 50% inhibitory concentration (IC50) in experiment [1] and in experiment [2] were 1000 to 10000 nM and 1 to 100 nM, respectively.
For `Fc1cc2nc(-n3cnc4ccncc43)n(C3CC3)c2cc1F` [Example 36, 3-(1-cyclopropyl-5,6-difluoro-1H-benzo[d]imidazol-2-yl)-3H-imidazo[4,5-c] pyridine] the same measures were 1000 to 10000 nM and 1 to 100 nM.
Take `O=C(O)c1cc2c(cn1)ncn2-c1nc2cc(F)c(F)cc2n1C1CC1` [Example 39, 1-(1-cyclopropyl-5,6-difluoro-1H-benzo[d]imidazol-2-yl)-1H-imidazo[4,5-c]pyridine-6-carboxylic acid]: the IC50 in experiment [1] is > 10000 nM; in experiment [2], 1000 to 10000 nM.
Turning to `Fc1cc2nc(-n3cnc4cnc(C(F)F)cc43)n(C3CC3)c2cc1F` [Example 40, 1-(1-cyclopropyl-5,6-difluoro-1H-benzo[d]imidazol-2-yl)-6-(difluoromethyl)-1H-imidazo[4,5-c]pyridine], the 50% inhibitory concentration (IC50) in experiment [1] was > 10000 nM; in experiment [2] it was 1 to 100 nM.
Consider `Fc1cc2nc(-n3cnc4cc(C(F)F)ncc43)n(C3CC3)c2cc1F` [Example 41, 3-(1-cyclopropyl-5,6-difluoro-1H-benzo[d]imidazol-2-yl)-6-(difluoromethyl)-3H-imidazo[4,5-c]pyridine], for which the results for the IC50 in experiment [1] and in experiment [2] were 1000 to 10000 nM and 1 to 100 nM, respectively.
Turning to `N#Cc1ccc2nc(-n3cnc4ccncc43)n(C3CC3)c2c1` [Example 42, 1-cyclopropyl-2-(3H-imidazo[4,5-c]pyridin-3-yl)-1H-benzo[d]imidazole-6-carbonitrile], the IC50 in experiment [1] was > 10000 nM; in experiment [2], 1 to 100 nM.
Regarding `N#Cc1ccc2nc(-n3cnc4cnccc43)n(C3CC3)c2c1` [Example 43, 1-cyclopropyl-2-(1H-imidazo[4,5-c]pyridin-1-yl)-1H-benzo[d]imidazole-6-carbonitrile], the IC50 is > 10000 nM in experiment [1] and 1 to 100 nM in experiment [2].
Take `O=C(O)c1ccc2c(c1)ncn2-c1nc2cc(F)c(F)cc2n1C1CC1` [Example 44, 1′-cyclopropyl-5′,6′-difluoro-1′H-[1,2′-bibenzo[d]imidazole]-5-carboxylic acid]: the IC50 in experiment [1] was > 10000 nM; in experiment [2], 1000 to 10000 nM.
